Series [1] deals with Z-138. Kind of series: Induction of apoptosis in human Z138 cells assessed as viable cells at 0.4 nM incubated for 168 hrs by Annexin V-FITC/PI staining based flow cytometric analysis (reference value: 94.4 %). Type of series: functional. As to conditions: read-out: Activity.
The test system of series [2] is Z-138. Description: Induction of apoptosis in human Z138 cells assessed as early apoptotic cells at 2.0 nM incubated for 168 hrs by Annexin V-FITC/PI staining based flow cytometric analysis (reference value: 1.68 %). It counts as functional. A general note: A flow cytometer gives signals particle by particle.
Series [3] has as its system Z-138. Description: Induction of apoptosis in human Z138 cells assessed as necrotic cells at 0.4 nM incubated for 168 hrs by Annexin V-FITC/PI staining based flow cytometric analysis (reference value: 3.54 %). It counts as functional.
The subject of series [4] is Z-138. Kind of series: Induction of apoptosis in human Z138 cells assessed as necrotic cells at 10.0 nM incubated for 168 hrs by Annexin V-FITC/PI staining based flow cytometric analysis (reference value: 3.54 %). Type of series: functional.
The subject of series [5] is Z-138. Description: Cell cycle arrest in human Z138 cells assessed as increase in DNA content at 0.4 nM incubated for 168 hrs by RNase A/PI staining based flow cytometric analysis relative to control. Type of series: functional.
A short description of series [6]: MRT (0 to t) in Sprague-Dawley rat at 2 mg/kg, iv by LC-MS/MS analysis. Type of series: ADME, organism-based. As to conditions: in vivo.
The nature of series [7]: AUC (0 to t) in Sprague-Dawley rat at 10 mg/kg, po by LC-MS/MS analysis. It counts as ADME, organism-based. As to conditions: Sprague-Dawley, in vivo.
Series [8] deals with Z-138. Description: Induction of apoptosis in human Z138 cells assessed as early apoptotic cells at 10.0 nM incubated for 168 hrs by Annexin V-FITC/PI staining based flow cytometric analysis (reference value: 1.68 %). It counts as functional.
Series [9] relates to Z-138. Kind of series: Induction of apoptosis in human Z138 cells assessed as late apoptotic cells at 2.0 nM incubated for 168 hrs by Annexin V-FITC/PI staining based flow cytometric analysis (reference value: 0.37 %). Type of series: functional.
For series [10], the system named is Z-138. Description: Induction of apoptosis in human Z138 cells assessed as early apoptotic cells at 0.4 nM incubated for 168 hrs by Annexin V-FITC/PI staining based flow cytometric analysis (reference value: 1.68 %). It counts as functional.
Series [11] concerns the target T1, Protein arginine N-methyltransferase 7 (Homo sapiens, UniProt Q9NVM4).
T1 sequence (Q9NVM4 whole entry): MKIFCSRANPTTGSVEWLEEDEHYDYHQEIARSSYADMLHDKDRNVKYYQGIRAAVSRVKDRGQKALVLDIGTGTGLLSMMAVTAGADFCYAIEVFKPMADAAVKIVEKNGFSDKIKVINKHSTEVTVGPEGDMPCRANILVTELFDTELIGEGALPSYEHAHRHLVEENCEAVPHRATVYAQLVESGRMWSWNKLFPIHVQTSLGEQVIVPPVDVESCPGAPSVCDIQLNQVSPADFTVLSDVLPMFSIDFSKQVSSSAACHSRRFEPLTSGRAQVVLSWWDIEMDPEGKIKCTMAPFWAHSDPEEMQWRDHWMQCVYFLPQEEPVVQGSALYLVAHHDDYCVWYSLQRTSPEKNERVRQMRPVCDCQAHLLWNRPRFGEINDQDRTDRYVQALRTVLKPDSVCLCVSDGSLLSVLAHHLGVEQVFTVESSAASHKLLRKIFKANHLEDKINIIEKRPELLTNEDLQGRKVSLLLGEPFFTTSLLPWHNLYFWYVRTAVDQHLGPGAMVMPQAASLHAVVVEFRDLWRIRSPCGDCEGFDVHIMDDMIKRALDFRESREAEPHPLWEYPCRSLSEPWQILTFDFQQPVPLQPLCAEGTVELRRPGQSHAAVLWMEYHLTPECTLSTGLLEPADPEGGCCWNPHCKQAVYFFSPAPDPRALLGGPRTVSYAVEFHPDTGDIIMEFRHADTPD
Kind of series: Inhibition of PRMT7 (unknown origin).

The test system of series [12] is Z-138. Description: Induction of apoptosis in human Z138 cells assessed as viable cells at 10.0 nM incubated for 168 hrs by Annexin V-FITC/PI staining based flow cytometric analysis (reference value: 94.4 %). Type of series: functional. The settings on record: read-out: Activity.
Series [13] in a line: Cmax in Sprague-Dawley rat at 2 mg/kg, iv by LC-MS/MS analysis. It counts as ADME, organism-based. As to conditions: in vivo.
The test system of series [14] is Z-138. Kind of series: Induction of apoptosis in human Z138 cells assessed as necrotic cells at 2.0 nM incubated for 168 hrs by Annexin V-FITC/PI staining based flow cytometric analysis (reference value: 3.54 %). It counts as functional.
For series [15], the system named is Z-138. Description: Induction of apoptosis in human Z138 cells assessed as late apoptotic cells at 10.0 nM incubated for 168 hrs by Annexin V-FITC/PI staining based flow cytometric analysis (reference value: 0.37 %). It counts as functional.
Series [16] can be described thus: Hematological toxicity in human CD34-positive hematopoietic stem/progenitor cell supplemented with erythroid lineage assessed as reduction in cell viability incubated for 14 days by luminometric analysis. Type of series: cell-based.
Series [17] relates to Z-138. Description: Induction of apoptosis in human Z138 cells assessed as viable cells at 2.0 nM incubated for 168 hrs by Annexin V-FITC/PI staining based flow cytometric analysis (reference value: 94.4 %). The settings on record: read-out: Activity. Type of series: functional.
Series [18] in a line: MRT (0 to t) in Sprague-Dawley rat at 10 mg/kg, po by LC-MS/MS analysis. As to conditions: in vivo. Type of series: ADME, organism-based.
The nature of series [19]: Volume of distribution in Sprague-Dawley rat at 2 mg/kg, iv by LC-MS/MS analysis. Type of series: ADME, organism-based. As to conditions: in vivo.
The nature of series [20]: Oral bioavailability in Sprague-Dawley rat at 10 mg/kg by LC-MS/MS analysis. Type of series: ADME, organism-based. The settings on record: in vivo.
Series [21] concerns the target T2, Histone-arginine methyltransferase CARM1 (Homo sapiens, UniProt Q86X55).
T2 sequence (Q86X55 whole entry): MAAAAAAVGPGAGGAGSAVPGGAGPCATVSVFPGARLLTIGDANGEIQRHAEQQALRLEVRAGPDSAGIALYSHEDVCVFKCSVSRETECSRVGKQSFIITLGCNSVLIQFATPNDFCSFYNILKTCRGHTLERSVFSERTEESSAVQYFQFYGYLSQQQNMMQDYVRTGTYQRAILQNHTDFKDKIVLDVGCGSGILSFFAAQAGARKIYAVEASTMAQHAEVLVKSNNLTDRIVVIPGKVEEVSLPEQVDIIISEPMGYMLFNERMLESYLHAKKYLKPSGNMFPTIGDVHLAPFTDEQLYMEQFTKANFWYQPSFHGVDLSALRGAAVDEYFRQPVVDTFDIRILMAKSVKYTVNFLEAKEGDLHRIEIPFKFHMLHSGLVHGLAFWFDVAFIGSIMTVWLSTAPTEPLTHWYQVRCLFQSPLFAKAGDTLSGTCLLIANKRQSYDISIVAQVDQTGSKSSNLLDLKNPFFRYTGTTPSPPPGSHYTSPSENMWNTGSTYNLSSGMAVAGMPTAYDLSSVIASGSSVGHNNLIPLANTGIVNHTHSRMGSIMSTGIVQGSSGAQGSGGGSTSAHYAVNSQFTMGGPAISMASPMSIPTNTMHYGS
Description: Inhibition of PRMT4 (unknown origin).

The target of series [22] is Protein arginine N-methyltransferase 3 (Homo sapiens, UniProt O60678). Kind of series: Inhibition of PRMT3 (unknown origin).
Series [23] relates to Z-138. Kind of series: Cell cycle arrest in human Z138 cells assessed as increase in DNA content at 50.0 nM incubated for 168 hrs by RNase A/PI staining based flow cytometric analysis relative to control. Type of series: functional.

Chain of Protein arginine N-methyltransferase 3 (O60678 whole entry): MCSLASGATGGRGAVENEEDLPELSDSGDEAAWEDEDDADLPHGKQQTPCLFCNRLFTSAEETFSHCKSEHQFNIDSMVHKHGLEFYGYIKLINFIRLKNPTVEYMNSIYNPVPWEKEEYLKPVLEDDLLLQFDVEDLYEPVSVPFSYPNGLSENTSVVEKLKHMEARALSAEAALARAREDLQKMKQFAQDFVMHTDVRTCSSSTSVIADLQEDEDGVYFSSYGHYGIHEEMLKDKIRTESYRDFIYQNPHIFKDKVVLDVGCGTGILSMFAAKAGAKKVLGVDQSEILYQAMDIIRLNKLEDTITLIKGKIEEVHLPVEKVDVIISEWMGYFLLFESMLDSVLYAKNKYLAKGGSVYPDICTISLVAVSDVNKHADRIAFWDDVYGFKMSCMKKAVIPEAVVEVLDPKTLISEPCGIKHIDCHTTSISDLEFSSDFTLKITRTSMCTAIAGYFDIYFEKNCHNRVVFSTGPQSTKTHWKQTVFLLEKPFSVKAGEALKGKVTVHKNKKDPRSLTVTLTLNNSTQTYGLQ

The MRT last is the average time that molecules of a dose stay in the body. The term AUC(0-t) denotes the area under the concentration-time curve up to a stated or last time point. A high value points to more exposure. As usually defined, the IC50 is the point on the concentration scale where inhibition reaches its midpoint. Broadly, the Cmax is the maximum level reached in the sampled fluid or tissue. What is called Vd is the apparent volume that relates the amount in the body to the concentration in plasma or blood. For orientation: bioavailability means dose-corrected exposure relative to a reference, in per cent. Low readings indicate poor availability, high ones good availability. Take `CC(=O)N1CCC(Nc2cc(C(=O)NC[C@H](O)CN3CCc4ccccc4C3)ncn2)CC1` [PEMRAMETOSTAT]: the viability at 0.0004 µM with Z-138 [1] is 95.6%. Moreover, the Activity in the series on Z-138 [2] was 1.97%; in the series with Z-138 [3], 2.52%; in the series on Z-138 [4], 5.31%; in the series with Z-138 [5], 50.9%; in the series on Z-138 [8] it was 7.12%; in the series on Z-138 [9], 0.31%. The Activity with Z-138 [10] was determined as 1.53%; with Z-138 [14] it was 2.64%; with Z-138 [15], 1.53%; with Z-138 [23] it was 59.2%. In addition, the MRT last is 24 min in [6] and 66 min in series [18]. In series [7], the AUC(0-t) amounted to 0.404 µg·h/mL. For the same molecule, the IC50 in [11], in [21] and in series [22] was above 10 µM each time. Also, the viability at 0.01 µM in the series with Z-138 [12] amounted to 86%. In addition, the Cmax in [13] worked out at 1.83 µg/mL. For the same molecule, the IC50 at 14 days in series [16] stood at 0.043 µM. Besides, in the series on Z-138 [17], the viability at 0.002 µM worked out at 95.1%. The molecule further displayed a Vd in series [19] of 1.4 L/kg. This molecule gave a bioavailability in [20] of 13.5%.

`CC(=O)N1CC2(CC(Nc3cc4c(cn3)C3(CC3)CN(C[C@H](O)CN3CCc5ccccc5C3)C4=O)C2)C1`: the viability at 0.0004 µM in the series with Z-138 [1] came to 95.3%. Further, the Activity in the series on Z-138 [2] is 22%; with Z-138 [3], 2.41%; in the series with Z-138 [4], 3.87%; with Z-138 [5], 52.4%; in the series with Z-138 [8] it was 54.5%; in the series with Z-138 [9] it was 9.25%. Moreover, the Activity in the series with Z-138 [10] is on record as 1.89%; in the series on Z-138 [14], 6.68%; in the series with Z-138 [15], 32.4%; with Z-138 [23], 71.6%. In addition, the MRT last in series [6] stood at 30 min; in series [18], 102 min. The AUC(0-t) in series [7] turned out to be 1.03 µg·h/mL. The IC50 in series [11], in [21] and in series [22] was above 10 µM throughout. The viability at 0.01 µM in the series with Z-138 [12] is 9.21%. The same molecule registered a Cmax in [13] of 1.37 µg/mL. Also, the IC50 at 14 days in [16] came to 0.216 µM. Moreover, the viability at 0.002 µM in the series on Z-138 [17] amounted to 62.1%. The molecule also came in with a Vd in [19] of 1.4 L/kg. The bioavailability in series [20] was 26.7%.

For the origin of these results see ChEMBL document CHEMBL6087464, “Design, Synthesis, and Biological Evaluation of 3,4-Dihydroisoquinolin-1(2H)-one Derivatives as Protein Arginine Methyltransferase 5 Inhibitors for the Treatment of Non-Hodgkin's Lymphoma” (J Med Chem, 2025).
